Structures can show the parent of a compound that is named as a salt.
What was measured:
Type in all cases: in vivo
eyes [1] = assay: Topical ocular composition (Example 212), dry eye syndrome; settings: composition of Example 212 (0.50 wt %), as a drop twice per day
eyes [2] = assay: Topical ocular composition (Example 212), allergic symptoms
eyes [3] = assay: Topical ocular composition (Example 212), hyperemia, redness and ocular irritation; settings: composition of Example 212 (0.50 wt %), as a drop as needed
[4] = system: patient suffering from glaucoma; assay: Topical ocular composition (Example 212) lowering intraocular pressure
Procedure: Examples of such assays are described in the following reference, incorporated herein by reference: C. Liljebris, G. Selen, B. Resul, J. Sternschantz, and U. Hacksell, “Derivatives of 17-Phenyl-18,19,20-trinorprostaglandin F2α Isopropyl Ester: Potential Anti-glaucoma Agents”, Journal of Medicinal Chemistry, Vol. 38 (2) 1995, pp. 289-304.
(§1) Topical pharmaceutical compositions for lowering intraocular pressure are prepared by conventional methods and formulated as follows: […]
(§2) A compound according to this invention is used as the 6-aminoisoquinoline derivative. […]

eyes [5] = assay: Topical ocular composition (Example 212), neuroprotective agent; settings: composition of Example 212 (0.50 wt %), as a drop 4 times per day
Procedure: as §1, §2

[6] = composition of Example 212 (0.50 wt %), as a drop twice per day
[7] = composition of Example 212/213 (0.50 wt %), as a drop twice a day or as needed

O=C(CCl)Nc1ccc2cnccc2c1 [Example E1, 2-chloro-N-(isoquinolin-6-yl) acetamide]
relief of dry eye syndrome (eyes [1]): relieves dry eye syndrome | decrease of allergic symptoms (eyes [2]; [6]): substantially decreases allergic symptoms

NCC(=O)Nc1ccc2cnccc2c1 [Example E40, 2-amino-N-isoquinoline-6-yl-acetamide dihydrochloride]
decrease of hyperemia, redness and ocular irritation (eyes [3]): substantially decreases hyperemia, redness and ocular irritation

O=C(CNCc1ccccc1)Nc1ccc2cnccc2c1 [Example E58, 2-(benzylamino)-N-(isoquinolin-6-yl)acetamide]
decrease of intraocular pressure [4, 6]: substantially decreases intraocular pressure

O=C(Nc1ccc2cnccc2c1)OCc1ccccc1 [Example E87, benzylisoquinolin-6-ylcarbamate]
relief of dry eye syndrome (eyes [1]): relieves dry eye syndrome | decrease of allergic symptoms (eyes [2]; [6]): substantially decreases allergic symptoms

O=C(NCc1ccccc1)Nc1ccc2cnccc2c1 [Example E88, 1-benzyl-3-(isoquinolin-6-yl)urea]
decrease of allergic symptoms (eyes [2]; composition of Example 212/213 (0.50 wt %), as a drop as needed): substantially decreases allergic symptoms

O=C(CN1CCOCC1)Nc1ccc2cnccc2c1 [Example E105, N-(isoquinolin-6-yl)-2-morpholinoacetamide]
decrease of hyperemia, redness and ocular irritation (eyes [3]): substantially decreases hyperemia, redness and ocular irritation

O=C(Nc1ccncc1)c1ccc(C2CC2C(=O)Nc2ccc3cnccc3c2)cc1 (stereo not shown) [Example E118, 4-(2-(isoquinolin-6-ylcarbamoyl)cyclopropyl)-N-(pyridin-4-yl)benzamide]
decrease of intraocular pressure [4, 7]: substantially decreases intraocular pressure

CNC(=O)c1cccc(NCC(=O)Nc2ccc3cnccc3c2Cl)c1 [Example E119b, 3-(2-(5-chloroisoquinolin-6-ylamino)-2-oxoethylamino)-N-methyl benzamide]
decrease of intraocular pressure [4, 7]: substantially decreases intraocular pressure

CNC(=O)c1cccc(NCS(=O)(=O)Nc2ccc3cnccc3c2)c1 [Example E136, 3-((N-isoquinolin-6-ylsulfamoyl)methylamino)-N-methylbenzamide]
decrease of intraocular pressure [4, 6]: substantially decreases intraocular pressure

N[C@@H](CSCC(C(=O)c1ccc(/C=C/C(=O)Nc2ccc3cnccc3c2)cc1)c1ccccc1)C(=O)O (stereo partly drawn) [Example E207, (2R)-2-amino-3-(3-(4-((E)-3-(isoquinolin-6-ylamino)-3-oxoprop-1-enyl)phenyl)-3-oxo-2-phenylpropylthio)propanoic acid]
neuroprotective agent (eyes [5]): serves as a neuroprotective agent | decrease of intraocular pressure ([4]; composition of Example 212 (0.50 wt %), as a drop 4 times per day): substantially decreases intraocular pressure
